Reference: US8853222B2, “Treatment of herpes virus related diseases” (priority 2008, dated 2014)
“Also recorded” adds a separate entry of the source. Read-outs that look alike come from different tables or passages of the source.

Key:
[1] = oral, maximum dose of 800 mg 5 times per day, most patients; cited from earlier work
[2] = cited from earlier work
[3] = Renal function by creatinine clearance in one patient; type: in vivo, human; conditions: from ~29 mL/min before
Source text: This treatment is useful, not only in stopping the progression of the diseases, but in returning more of organ function previously lost. Text books claim that organ function lost to these diseases can never be recovered, but this treatment has succeeded in recovering nearly all lost organ function. One of the diseases for which a large return of function appears achievable is progressive loss of renal function by unknown cause, but suspected to be autoimmune disease related. A clinical laboratory measure of kidney function is creatinine clearance. Creatinine is the metabolic product formed from creatine when food is converted to energy. Creatinine is produced at a steady state and is affected very little by diet or normal physical activities. When a subject's kidneys are damaged and/or cannot function normally, the amount of creatinine excreted in the subject's urine decreases while its level in the blood increases. Thus, the blood level of creatinine indicates how well the kidneys are working A higher than normal blood level of creatinine usually means the kidneys are not functioning properly. […] As the measured kidney function improves a parallel process occurs in other affected tissues or organs, with a diminution of the visible inflammation, swelling, pain, grinding and clicks in the afflicted articular joints. […]

HSV-II = assay: Suppression of vesicle formation, prodrome and viral shedding in person with ongoing HSV-II infection; type: in vivo, human
Source text: The inventor in this application is aware of the prior art teaching of U.S. Pat. No. 5,559,114 (“'114”) and International Application No. PCT/US95/16207 (“16207”) that describe the treatment of certain autoimmune diseases using higher than FDA-approved amounts of certain 2-amino purine derivatives. According to the teachings of the '114 patent and the 16207 application, one compound useful was acyclovir (or its precursor valacyclovir) at a level of 20 to 50 g per day for a 100 kg subject (or 5-10 g of valacyclovir). Another compound was famciclovir (the precursor of penciclovir) at about 4-10 g per day for a 100 kg subject ([…]). In following the treatment regime so taught for a subject having HSV-II infection and with the drug used to suppress autoimmune disease signs or symptoms, the inventor of the present invention observed that although the signs or symptoms of the subject's autoimmune disease improved, the subject continued to experience discomfort even if the high dose regimen of famciclovir described in the '114 patent was followed for a number of years. In addition, the subject continued to have prodrome episodes, vesicle outbreaks, and viral shedding. The prodrome is the sensation of tingling, pain or both in an area where the herpetic vesicles will appear within 24 to 48 hours. This is a very reliable signal that vesicles will appear on schedule. Vesicles are blisters or ulcers that appear on the skin or various mucous membranes as a result of the virus's replication process destroying cells that it has invaded. Viral shedding means that the virus is active on the skin, even though there is no prodrome or vesicle formation, and can be transmitted to another subject through skin contact, kissing, sexual intercourse, or oral sex.
This inventor interprets this to mean that viral shedding has been reduced dramatically, at least 90%. It is probably that viral shedding has been stopped completely. […]

[4] = Aseptic meningio-encephalitis subject treated with much higher doses; type: in vivo, human; conditions: much higher doses than '114
Source text: While the treatment of autoimmune disease using high levels of the anti-herpetic drugs taught in patent '114 provided noticeable improvements in a patient, signs or symptoms lingered even with ongoing treatment. Knowing the warning of the anti-herpetic drug labels that were on the market against using higher doses, increasing the dose even further was definitely contraindicated. However, the inventor was confronted with a problem of a subject presenting with extremely painful migraine type headache, which was diagnosed to be aseptic (not bacterial) meningio-encephalitis. […] The inventor also discovered that by using the much higher doses of famciclovir than previously taught in '114, the need to titrate a subject to tolerance of the drug could be avoided, that is the higher doses were effective at ameliorating the signs or symptoms of the disease without the accompanying pain of starting at a low dose and increasing it to a therapeutically effective level, as experienced with the doses of '114. While not wishing to be bound by a particular theory, it is thought that by regularly administering the higher levels the drug, a subject avoids a fluctuating blood level that can add to the irritation of already irritated nerves by major influxes of drug at a high level after having been at a lower level in the subject. […]

[5] = cited from earlier work; remark: listed apart in the source

For `Nc1nc2c(ncn2COCCO)c(=O)[nH]1` [acyclovir, 2-amino-1,9-dihydro-9-[(2-hydroxyethoxy)methyl]-6H-purin-6-one], the blood level [1] is given as “about 1.61 μg/mL” and the “effect on pain, muscle spasms, joint tenderness and butterfly rash” value ([2]; lupus patient, between 40 and 50 g per day) is given as “controlled pain, muscle spasms, joint tenderness and the butterfly rash”.

For `CC(=O)OCC(CCn1cnc2cnc(N)nc21)COC(C)=O` [famciclovir, 2-[2-(2-amino-9H-purin-9-yl)ethyl]-1,3-propanediol diacetate], the creatinine clearance ([3]; doses of '114, same patient) was roughly 89 mL/min, the creatinine clearance ([3]; very high doses, one patient) was “more than 140 mL/min” and the viral shedding reduced (HSV-II; 300 mg/kg/day, inventor's interpretation from suppressed sensations) was “at least 90%”. The “prodrome and vesicle outbreak” value (HSV-II; 10-12 g per day ('114 dose level)) was “continued to experience prodrome and vesicle outbreak”, the vesicle formation (HSV-II; ongoing dosage of 300 mg/kg/day, 300 mg/kg/day) was “no new vesicles form; also recorded: total suppression” and the “signs or symptoms of the encephalitis” value [4] was “alleviated”. The oral bioavailability ([5]; in vivo, po) was 77±8% and the “effect on pain, muscle spasms, joint tenderness and butterfly rash” value ([2]; 10-12 g per day) was “same effect”.

For `CC(C)[C@H](N)C(=O)OCCOCn1cnc2c(=O)[nH]c(N)nc21` [valacyclovir, L-valine, 2-[(2-amino-1,6-dihydro-6-oxo-9H-purin-9-yl)methoxy]ethyl ester], the oral bioavailability ([5]; oral) is given as 55±9%.
